Measured values as given in patent US5801017A, “Production of recombinant factor Xa inhibitor of leech Hirudo medicinalis” (Bio-Technology General Corp., priority 1994, dated 1998).
Values joined by “and” are separate entries in the source; they are usually repeats but may differ in a detail not shown here. Equal entries are not always repeated. Where two headings read alike, the source gives them in different places.

How the values were obtained:
Plasmin = assay: inhibition of plasmin (S2251); assay type: biochemical; conditions: substrate S2251
Procedure: (§1) Inhibition of bovine trypsin by naturally occurring FXaI was calculated following the classical dose response method. Ki values were obtained by plotting the percentage of activity of FXaI (determined by the calorimetric assay described below) against the ratio of the concentrations of inhibitor and enzyme. The calorimetric assay was performed using 80 μM Chromozyme TH (Pentapharm, Switzerland) as substrate in 10 mM Tris-HCl, 10 mM Hepes (pH 7.8), 100 mM NaCl, 0.1% PEG 6000 at 25° C. in the presence of 3.83 or 4.27 nM bovine trypsin. Inhibitor and enzyme were preincubated for 10 min at 25° C. before adding the substrate.
(§2) Plasmin and thrombin were not inhibited by naturally occurring FXaI in a similar assay as that for trypsin. In the case of thrombin, the substrate used was the same as that used for trypsin; in the case of plasmin, S2251 was used as substrate.

[1] = pharmacokinetic study in mice, ex vivo APTT; set-up: species or system Female Balb/c mice; conditions: for Mean APTT: ex vivo, i.v. 5.25 μg/mouse
Procedure: The clearance of FXaI from the blood of female mice was monitored over a period of 30 minutes by assessing the ex vivo APTT (see FIG. 4) at the time points indicated. The amount of FXaI is expressed as μg FXaI [Macart and Gerbaut, Clin. Chim. Acta 122:93-101 (1982)], determined from a calibration curve consisting of in vitro APTT time versus inhibitor concentration as shown in FIG. 5B.
A preliminary pharmacokinetic experiment was performed in order to assess the clearance rate of FXaI from the circulatory system. Female Balb/c mice (20-25 gm body weight) were injected intravenously with purified FXaI (isoform A; 5.25 μg protein/mouse in 0.2 ml saline). Blood samples were drawn into 1/10 v/v 3.8% citrate at 1, 3, 10 and 30 min after injection. It was possible to obtain only one blood sample from each mouse and therefore each timepoint is from a different mouse. The plasma was then separated and assayed for APTT. The concentration of FXaI was calculated from a calibration curve of APTT versus FXaI concentration which was constructed in vitro by adding various amounts of FXaI to a plasma pool from untreated mice FIG. 5B.

thrombin [2] = assay: thrombin inhibition assay according to Lottenberg et al.; assay type: biochemical
Procedure: The refolded and dialyzed protein so obtained was assayed for FXa inhibitory activity by the biochemical chromogenic assay described in Example 2. The results are shown in Table 6 as milliunits per mg protein (mu/mg). The amount of protein causing 50% inhibition in an assay mixture containing 2 nM FXa is defined as 1 mu. In addition, the refolded protein was also tested for its inhibitory effect on thrombin, another proteolytic enzyme of the coagulation cascade, which was assayed according to Lottenberg et al. Methods Enzymol. 80:341-361 (1981).

thrombin [3] = assay: inhibition of thrombin (Chromozyme TH); assay type: biochemical; conditions: substrate Chromozyme TH
Procedure: as §1, §2

FXa = assay: chromogenic FXa inhibitory activity assay (hydrolysis of CHG); assay type: biochemical, bovine
Procedure: Increasing amounts of FXaI purified on Mono-Q were preincubated for 3 minutes with 2 pmol bovine FXa in a 1 ml cuvette. The initial rate of hydrolysis of the substrate CHG was monitored at 405 nm (see Example 2). Fraction 47 was the peak fraction of a particular purification experiment.
The assay of FXa inhibitory activity is based on the inhibition of the FXa-mediated hydrolysis of the chromogenic substrate methoxycarbonyl-D-cyclohexylglycyl-glycyl-arginyl p-nitroanilide (CHG) as described below.
The appropriate substrate concentration was determined from the molar absorbance which is 8210 at 342 nm. The reaction mixture contains 50 mM Tris-HCl pH 8.2, 5 mM CaCl2, 200 mM NaCl, 0.1% PEG, 40 μM substrate, and approximately 2 nM FXa. The FXa concentration is determined more precisely from the initial (first 20 seconds) rate of CHG hydrolysis at 40 μM in the absence of inhibitor based on the kinetic parameters mentioned above.
Inhibition of the increase in absorbance may be observed in the presence of the FXa inhibitory activity of an FXa inhibitor such as FXaI of the present invention. The inhibitor concentration is the difference in absorbance between the reaction in the presence and absence of inhibitor multiplied by the FXa concentration.
This determination assumes the formation of a 1:1 enzyme-inhibitor complex, and further assumes that the dissociation constant is low enough (i.e., tight binding) to enable essentially total binding of the inhibitor (FXaI) to the enzyme (FXa). In fact, the saturation shape of the dose-response curve (FIG. 3) provides evidence that a finite and not negligible dissociation of the inhibitor-enzyme complex occurs under these conditions. The dose response curve is represented by the degree of inhibition versus FXaI concentration and is further described in Section 5.2.
The degree of dissociation of the FXa-FXaI complex is characterized by the inhibition constant (Ki) and may be determined from the inhibited velocity of the hydrolysis of the chromogenic substrate CHG. […] The Ki of naturally occurring FXa in the chromogenic assay is about 9 nM.
The determination of inhibitor concentration determined by the above method is therefore probably underestimated. It was found useful to define the FXaI concentration as the protein concentration (IC50) required to obtain a constant degree of inhibition, usually 50% and to define the amount causing 50% inhibition under these reaction conditions to be 1 milliunit (mu) or 1 pmol. IC50 is generally higher than Ki, and depending on the type of inhibition, can be shown to depend variously on substrate concentration, Ki, Km and other factors (Segel, I. (1974) "Enzyme Kinetics", Wiley Interscience). In fact, the range of values of IC50 was determined to be about 10-20 nM.
The FXaI activity assay used to determine concentration during purification and characterization was performed in an Elisa Titertek Twin Reader, Type 380 (EF LAB). The final activity measurement of purified protein was also performed in a Phillips (model PU 8720) UV/Vis scanning spectrophotometer.

[4] = molecular target: FXa in a prothrombinase complex; assay: FXa inhibitory activity in the prothrombinase complex (thrombin generation); assay type: biochemical
Procedure: The inhibitory activity of FXaI may also be assayed by its effect on FXa in a prothrombinase complex. The phospholipid used was rabbit brain cephalin (Sigma). The contents of one vial, suspended in 1 ml 0.15M NaCl were diluted 1:40 in the reaction mixture, i.e. 2.5 μl/100 μl. The concentrations of the other components were: FXa 250 pM, prothrombin 2.67 μM, FVa 4.2 nM and Ca^++ 1 mM in 20 mM Tris-HCl pH 7.4/150 mM NaCl/0.1% polyethylene glycol 6000. Following 10 minutes of preincubation at 37° C., the reaction was initiated by the addition of prothrombin. Aliquots were removed at various time intervals. The reaction was stopped by 10 mM EDTA and aliquots were kept on ice until assayed. The inhibition of FXa by a FXa inhibitor (e.g. FXaI of the present invention) was observed as the effect of FXaI on the generation of thrombin from prothrombin at 37° C. The amount of thrombin generated was assayed using 80 μg of the synthetic thrombin p-nitroanilide substrate S-2238 (KabiVitrum, Sweden) at 23° C.

plasma = assay: APTT doubling by recombinant mature FXaI; assay type: biochemical
Procedure: The inhibitory activity of FXaI was also assayed as the increase of the activated partial thromboplastin time (APTT) essentially as described in Spaethe, Haemostasis, AHS/Deutschland GmbH, Munich (1984), using as reagent Actin FS (Dade), which contains ellagic acid for activation of Factors XII and Factor XI, and soy bean phospholipid. Under these conditions, and in the presence of 20 mM CaCl2, only the intrinsic pathway of coagulation is activated.

| Molecule | inhibition of plasmin (Plasmin) | FXaI calculated from the calibration curve ([1]; 1 min post-injection) | FXaI calculated from the calibration curve ([1]; 3 min post-injection) | FXaI calculated from the calibration curve ([1]; 10 min post-injection) | FXaI calculated from the calibration curve ([1]; 30 min post-injection) | Mean APTT ([1]; 1 min post-injection) | Mean APTT ([1]; 3 min post-injection) | Mean APTT ([1]; 10 min post-injection) | Mean APTT ([1]; 30 min post-injection) | half life of plasma inhibitor activity ([1]; mice, intravenous, 5.25 μg protein/mouse) | Inhibitory activity (specific activity), Thrombin (thrombin [2]) | inhibition of thrombin (thrombin [3]) | Inhibitory activity (specific activity), FXa (FXa; 1 mu = amount causing 50% inhibition with 2 nM FXa) | IC50 (FXa; chromogenic assay, read-out: IC50 (protein concentration for 50% inhibition)) | Ki ([4]; 50 pM FXa, 1.35 μM prothrombin, read-out: Ki in prothrombinase complex assay, modified protocol) | IC50 ([4]; 250 pM FXa, 2.67 μM prothrombin) | Ki ([4]; 250 pM FXa, 2.67 μM prothrombin, read-out: Ki in prothrombinase complex assay) | concentration causing doubling of the APTT (plasma) | FXa inhibitory specific activity (FXa; after removal of the extension peptide from the cleavage solution by chromatography) | FXa inhibitory specific activity (FXa; following cleavage with enterokinase) |
| --- | --- | --- | --- | --- | --- | --- | --- | --- | --- | --- | --- | --- | --- | --- | --- | --- | --- | --- | --- | --- |
| naturally occurring FXaI: FXa inhibitor protein isolated from dilute leech saliva (DLS) of the leech Hirudo medicinalis; 14 kD monomer | not inhibited | 0.3150 µg | 0.243 µg and 0.174 µg | 0.1245 µg | 0 µg | 91 s | 79 s and 66 s | 55 s | 29 s and 30 s | about 7.5 min | < 1 mu/mg | not inhibited | 507 mu/mg | 10000 to 20000 pM | 120 pM | 190 pM | 72 pM | – | – | – |
| mature FXaI: recombinant FXaI obtained by enterokinase cleavage of the pFSHI-6 prepeptide, about 15 kD (protein) YEVIYVDDPCEDSDCEDGNKCSPVTNECDCSPVRCRLHCNFYVKDSNGCETCACEPKCKHKNCPTGHHCNKLTNKCELKKQRRMG | – | – | – | – | – | – | – | – | – | – | – | – | – | – | – | – | – | 12.2 µg/mL | ≤ 8000 mu/mg protein | 4000-4500 mu/mg protein |
